Holding throughout (format): in vivo
Test [1] relates to Cotton Aphid (aphis gossypii, Mixed Life Stages). Kind of test: Cotton aphid (aphis gossypii, mixed life stages), cotyledon dip test. The conditions noted are these: 120 h, mortality counts after 5 days, in comparison with untreated controls. An excerpt: (§1) The active compounds were formulated in 50:50 (vol:vol) acetone:water and 100 ppm Kinetica™ surfactant.
Cotton plants at the cotyledon stage (one plant per pot) were infested by placing a heavily infested leaf from the main colony on top of each cotyledon. The aphids were allowed to transfer to the host plant overnight, and the leaf used to transfer the aphids was removed. The cotyledons were dipped in the test solution and allowed to dry. After 5 days, mortality counts were made.

Test [2] relates to Green Peach Aphid (Myzus persicae, Mixed Life Stages). Kind of test: Green peach aphid (Myzus persicae, mixed life stages), pepper leaf dip test. The conditions noted are these: foliar, 120 h, after 5 days, in comparison with untreated controls.
Excerpt: as §1
Pepper plants in the 2nd leaf-pair stage (variety ‘California Wonder’) were infested with approximately 40 laboratory-reared aphids by placing infested leaf sections on top of the test plants. The leaf sections were removed after 24 hr. The leaves of the intact plants were dipped into gradient solutions of the test compound and allowed to dry. Test plants were maintained under fluorescent light (24 hour photoperiod) at about 25° C. and 20-40% relative humidity. Aphid mortality on the treated plants, relative to mortality on check plants, was determined after 5 days.

In test [3] the test system is Silverleaf Whitefly (bemisia argentifolii, adult). The experiment in a line: Silverleaf whitefly (bemisia argentifolii, adult), cotton cotyledon dip test. The conditions noted are these: 72 h, 3 days after treatment, in comparison with untreated controls. The procedure: as §1
Selected cotton plants were grown to the cotyledon state (one plant per pot). The cotyledons were dipped into the test solution to provide complete coverage of the foliage and placed in a well-vented area to dry. Each pot with treated seedling was placed in a plastic cup and 10 to 12 whitefly adults (approximately 3-5 day old) were introduced. The insects were collected using an aspirator and an 0.6 cm, non-toxic Tygon® tubing (R-3603) connected to a barrier pipette tip. The tip, containing the collected insects, was then gently inserted into the soil containing the treated plant, allowing insects to crawl out of the tip to reach the foliage for feeding. The cups were covered with a reusable screened lid (150 micron mesh polyester screen PeCap from Tetko Inc). Test plants were maintained in the holding room at about 25° C. and 20-40% relative humidity for 3 days avoiding direct exposure to the fluorescent light (24 hour photoperiod) to prevent trapping of heat inside the cup. Mortality was assessed 3 days after treatment of the plants.

Test [4] has as its system Cowpea Aphid (aphis craccivora). Kind of test: Cowpea aphid (aphis craccivora), spray on potted cowpea plants. The conditions noted are these: population reduction assessed after 24, 72 and 120 hours, in comparison with untreated controls. The procedure:
The active compounds were formulated in 50:50 (vol:vol) acetone:water. The test solution was prepared at the day of use.
Potted cowpea plants colonized with 100-150 aphids of various stages were sprayed after the pest population had been recorded. Population reduction was assessed after 24, 72, and 120 hours.

The next test relates to Bean Aphid (Aphis fabae). The experiment in a line: Bean aphid (Aphis fabae), nasturtium plant dip test. Conditions: 72 h, after 3 days, in comparison with untreated controls.
Excerpt: as §1
Nasturtium plants grown in Metro mix in the 1st leaf-pair stage (variety ‘Mixed Jewel’) were infested with approximately 2-30 laboratory-reared aphids by placing infested cut plants on top of the test plants. The cut plants were removed after 24 hr. Each plant was dipped into the test solution to provide complete coverage of the foliage, stem, protruding seed surface and surrounding cube surface and allowed to dry in the fume hood. The treated plants were kept at about 25° C. with continuous fluorescent light. Aphid mortality is determined after 3 days.

Test [5] concerns Vetch Aphid (Megoura viciae). Kind of test: Vetch aphid (Megoura viciae), bean leaf disk microtiterplate test. Conditions: foliar, 144 h, concentration of the test solution 2500 mg/L, 6 days. The procedure: The active compounds were formulated in 1:3 (vol:vol) DMSO:water with different concentrations of formulated compounds.
Bean leaf disks were placed into microtiterplates filled with 0.8% agar-agar and 2.5 ppm OPUS™. The leaf disks were sprayed with 2.5 μl of the test solution and 5 to 8 adult aphids were placed into the microtiterplates which were then closed and kept at 23±1° C. and 50±5% relative humidity under fluorescent light for 6 days. Mortality was assessed on the basis of vital, reproduced aphids. Aphid mortality and fecundity was then visually assessed.

The subject of test [6] is Southern Armyworm (spodoptera eridania, 2nd instar larvae). Kind of test: Southern armyworm (spodoptera eridania, 2nd instar larvae), lima bean leaf dip test. Conditions: foliar, 96 h, at 4 days, in comparison with untreated controls. As to the method: as §1
A pair of first true leaves of Sieva lima bean was dipped in the test solution and allowed to dry. The leaf was then placed in a plastic perforated zip enclosure bag and ten 2nd instar larvae were added. At 4 days, observations were made of mortality and reduced feeding.

The test system of test [7] is Mediterranean Fruitfly (Ceratitis capitata). Kind of test: Activity against Mediterranean fruitfly (Ceratitis capitata), insect diet microtiter plate test. The conditions noted are these: 120 h, eggs treated with 2500 ppm, egg and larval mortality after 5 days. As to the method:
The active compounds were formulated in 1:3 (vol:vol) DMSO:water.
For evaluating control of Mediterranean fruitfly the test unit consisted of microtiter plates containing an insect diet and 50 to 80 C. capitata eggs.
Different concentrations of formulated compounds were sprayed onto the insect diet at 5 μl, using a custom built micro atomizer, at two replications. After application, microtiter plates were incubated at 28±1° C. and 80±5% relative humidity for 5 days. Egg and larval mortality was then visually assessed.

Test [8] concerns Boll Weevil (Anthonomus grandis). Kind of test: Boll weevil (Anthonomus grandis), insect diet microtiter plate test. The conditions noted are these: 120 h, concentration of the test solution 2500 mg/L, egg and larval mortality after 5 days. The procedure: The compounds were formulated in 75:25 (vol:vol) water:DMSO.
For evaluating control of boll weevil (Anthonomus grandis) the test unit consisted of 24-well-microtiter plates containing an insect diet and 20-30 A. grandis eggs. Different concentrations of formulated compounds were sprayed onto the insect diet at 20 μl, using a custom built micro atomizer, at two replications. After application, the microtiter plates were incubated at 23±1° C. and 50±5% relative humidity for 5 days. Egg and larval mortality was then visually assessed.

`Cc1nn(C(F)F)cc1C(=O)N(C)c1cccnc1` [Compound 229]: the mortality (usually the percentage killed) at 300 ppm in test [1] was ≥ 75%; in [2], ≥ 50%; in test [3], ≥ 50%.
For the molecule `O=C(Nc1cccnc1)c1cnn(-c2ccccc2)c1Cl` [Compound 123], the mortality at 300 ppm in test [1] was ≥ 75%; in test [2], ≥ 50%; in test [4] it was ≥ 75%. Moreover, the mortality at 10 ppm with Bean Aphid (Aphis fabae) was ≥ 90%. Further, the mortality at 2500 µg/mL in [5] is ≥ 80%.
Regarding `CCCc1c(C(=O)Nc2cccnc2)cnn1-c1ccc(Cl)cc1` [Compound 79], the mortality at 300 ppm in [2] is ≥ 50%; in test [4], ≥ 75%; in test [6], ≥ 50%. For the same molecule, the mortality at 2500 ppm in [7] worked out at 50%.
Consider `Cn1ncc(C(=O)Nc2cccnc2)c1Cl` [Compound 83], for which the mortality at 300 ppm is ≥ 75% in [1], ≥ 50% in test [2], ≥ 75% in test [4] and ≥ 50% in test [3].
As to `Cc1c(C(=O)Nc2cccnc2)cnn1-c1ccc(Cl)cc1` [Compound 142], the mortality at 300 ppm in test [1] was ≥ 75%; in test [2], ≥ 50%; in test [4], ≥ 75%. Moreover, in the test on Bean Aphid (Aphis fabae), the mortality at 10 ppm is ≥ 90%. In addition, the mortality at 2500 µg/mL in [5] is ≥ 80%.
Take `CC(=O)N(C(=O)c1cn(C)nc1C(F)(F)F)c1cccnc1` [Compound 134]: the mortality at 300 ppm in test [1] was ≥ 75%; in test [2], ≥ 50%; in test [4], ≥ 75%; in test [3], ≥ 50%. Besides, the mortality at 2500 µg/mL in test [5] is ≥ 80%.
For the molecule `CCn1cc(C(=O)N(C)c2cccnc2)c(C(F)(F)F)n1` [Compound 183], the mortality at 300 ppm in [1] was ≥ 75%; in test [2] it was ≥ 50%; in [4] it was ≥ 75%. In addition, the mortality at 2500 µg/mL in test [5] is ≥ 80%. For the same molecule, the mortality at 2500 ppm in test [7] is 50%.
Consider `CCN(C(=O)c1cn(C)nc1C(F)(F)F)c1cccnc1` [Compound 127], for which the results for the mortality at 300 ppm in [1] and in [2] were ≥ 75% and ≥ 50%, respectively. Besides, the mortality at 10 ppm in the test on Bean Aphid (Aphis fabae) was ≥ 90%. Further, the mortality at 2500 µg/mL in test [5] was ≥ 80%.
With `Cn1cc(C(=O)Nc2cccnc2)c(C(F)(F)F)n1` [Compound 13, 1-methyl-3-trifluoromethyl-1H-pyrazole-4-carboxylic acid pyridin-3-ylamide], in the test with Bean Aphid (Aphis fabae), the mortality at 10 ppm is ≥ 90%. For the same molecule, in test [8], the mortality at 2500 µg/mL is ≥ 50%.
Consider `Cc1c(C(=O)Nc2cccnc2)cnn1-c1ccc([N+](=O)[O-])cc1` [Compound 231], for which, in test [5], the mortality at 2500 µg/mL was ≥ 80%. The molecule further registered a mortality at 2500 ppm in test [7] of 50%.
Consider `O=C(Nc1cccnc1)c1cn[nH]c1-c1cccs1` [Compound 77], for which the mortality at 300 ppm in test [6] was ≥ 50%. Besides, in [7], the mortality at 2500 ppm was 50%.
In the case of `Cc1nn(-c2ccccc2)cc1C(=O)Nc1cccnc1` [Compound 84], the mortality at 300 ppm in test [3] was ≥ 50%. The same molecule returned a mortality at 2500 ppm in test [7] of 50%.
Regarding `CCn1cc(C(=O)Nc2cccnc2)cn1` [Compound 102], the mortality at 300 ppm in test [1] is ≥ 75%; in test [2], ≥ 50%; in test [4], ≥ 75%; in [3], ≥ 50%. Further, the figures for the mortality at 2500 µg/mL in test [5] and in test [8] were ≥ 80% and 100%, respectively.
Turning to `O=C(Nc1cccnc1)c1cn(CC(F)F)nc1C(F)(F)F` [Compound 232], in test [5], the mortality at 2500 µg/mL is ≥ 80%. In test [7], this molecule gave a mortality at 2500 ppm of 50%.
With `O=C(Nc1cccnc1)c1cnn(Cc2ccccc2)c1` [Compound 82], the mortality at 300 ppm in [1] was ≥ 75%; in test [2] it was ≥ 50%; in [4] it was ≥ 75%; in test [3], ≥ 50%.
On to `CCn1ncc(C(=O)N(C)c2cccnc2)c1C` [Compound 180], for which the mortality at 300 ppm in test [1] is ≥ 75%; in [2] it was ≥ 50%; in [4] it was ≥ 75%; in test [3], ≥ 50%.
Turning to `CCn1cc(C(=O)Nc2cccnc2)c(C(F)F)n1` [Compound 181], the values for the mortality at 300 ppm in test [1], in test [2] and in test [4] were ≥ 75%, ≥ 50% and ≥ 75%, respectively. In addition, the mortality at 2500 µg/mL in test [5] is ≥ 80%. The molecule further showed a mortality at 2500 ppm in test [7] of 50%.
`CCc1c(C(=O)Nc2cccnc2)cnn1CC` [Compound 184]: the mortality at 300 ppm in test [1] was ≥ 75%; in test [2], ≥ 50%; in test [4] it was ≥ 75%. The mortality at 2500 µg/mL in test [5] is ≥ 80%. The molecule further gave a mortality at 2500 ppm in [7] of 50%.
In the case of `Cn1cc(C(=O)Nc2cccnc2)c(C(F)(F)F)n1` [Compound 100], in [3], the mortality at 300 ppm is ≥ 50%. Further, the mortality at 2500 µg/mL in test [5] is ≥ 80%. This molecule also yielded a mortality at 2500 ppm in [7] of 50%.
For `CN(C(=O)c1cn(CC(F)F)nc1C(F)(F)F)c1cccnc1` [Compound 234], the mortality at 2500 µg/mL in [5] was ≥ 80%; in [8], 100%. The mortality at 2500 ppm in test [7] came out at 50%.
On to `Cn1ncc(C(=O)Nc2cccnc2)c1C(F)(F)F` [Compound 109], for which the mortality at 300 ppm was ≥ 75% in test [1], ≥ 50% in [2], ≥ 75% in [4] and ≥ 50% in test [3]. Further, the mortality at 2500 µg/mL in [5] was ≥ 80%; in test [8], 100%.
For the molecule `O=C(Nc1cccnc1)c1cn(-c2ccc(Cl)cc2)nc1C(F)(F)F` [Compound 73], the mortality at 300 ppm in test [1] is ≥ 75%; in test [2], ≥ 50%; in test [4], ≥ 75%; in test [3] it was ≥ 50%. In addition, in test [5], the mortality at 2500 µg/mL was ≥ 80%.
Regarding `CN(C(=O)c1cnn(C(F)F)c1C(F)F)c1cccnc1` [Compound 189], the mortality at 300 ppm in test [1] was ≥ 75%; in test [2] it was ≥ 50%; in test [4], ≥ 75%; in [6], ≥ 50%. For the same molecule, the figures for the mortality at 2500 µg/mL in test [5] and in test [8] were ≥ 80% and 100%, respectively.
`CCCN(C(=O)c1cn(C)nc1C(F)(F)F)c1cccnc1` [Compound 129]: in the test with Bean Aphid (Aphis fabae), the mortality at 10 ppm was ≥ 90%.
As for `Cn1ncc(C(=O)Nc2cccnc2)c1C1CC1` [Compound 89], the mortality at 300 ppm in [1] was ≥ 75%; in test [2], ≥ 50%; in test [4], ≥ 75%; in test [3] it was ≥ 50%. Also, the mortality at 2500 µg/mL in test [5] is ≥ 80%.

The values are drawn from US8642597B2, “Pyrazole compounds for controlling invertebrate pests” (BASF SE, priority 2007, dated 2014).
